Assay results from article PMC11339948 (Chemical Science, 2024).
Bridge positions count the residues as written; N and C are the ends. Square brackets hold non-standard residues; d marks the D form. Ends that are not written are not given here. pGlu = O=C1CC[C@@H](C(=O)O)N1

Molecular target: full-length TDP1 (Homo sapiens, UniProt Q9NUW8)
Assay: FRET-based TDP1 enzymatic activity inhibition assay
Assay type: biochemical

Chain of full-length TDP1 (Q9NUW8 whole entry): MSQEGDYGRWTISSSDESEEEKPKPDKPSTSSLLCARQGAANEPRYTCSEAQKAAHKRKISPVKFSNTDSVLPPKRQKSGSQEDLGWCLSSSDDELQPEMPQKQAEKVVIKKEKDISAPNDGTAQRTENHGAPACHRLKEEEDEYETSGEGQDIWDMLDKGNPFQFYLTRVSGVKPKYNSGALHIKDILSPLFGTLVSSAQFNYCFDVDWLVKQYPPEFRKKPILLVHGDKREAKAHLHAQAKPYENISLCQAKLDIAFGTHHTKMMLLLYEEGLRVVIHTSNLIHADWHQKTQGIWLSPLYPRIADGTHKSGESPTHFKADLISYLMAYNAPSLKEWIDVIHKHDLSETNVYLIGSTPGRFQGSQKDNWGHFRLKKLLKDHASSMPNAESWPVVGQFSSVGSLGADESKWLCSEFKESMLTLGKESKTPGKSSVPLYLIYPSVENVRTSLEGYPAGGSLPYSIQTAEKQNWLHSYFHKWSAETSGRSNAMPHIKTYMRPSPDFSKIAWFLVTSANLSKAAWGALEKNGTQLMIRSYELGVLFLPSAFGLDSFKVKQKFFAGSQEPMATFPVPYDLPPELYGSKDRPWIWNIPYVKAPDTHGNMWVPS

[pGlu]EAFCYSDRFCQNYIGSIPDCCFGRGSYSFELQPPPWECYQC (disulfide 5-21, 11-39, 22-42) [Native recifin A, recifin A]
IC50: 0.8 µM

[pGlu]EAFCYSDRFCQNYIGSIPDCCFGRGSYSFELQPPPWECYQC (disulfide 5-21, 11-39, 22-42) [Synthetic recifin A, recifin A]
IC50: 0.58 µM
